Reference: patent US8247211B2, “Glycopeptide antibiotics” (American Cyanamid Company, priority 2001, dated 2012)
In brackets after ≈: the same amount, converted by molar mass.

How the values were obtained:
Experiment in all cases: In vitro antibacterial evaluation: minimum inhibitory concentration (MIC), broth dilution method
Type in all cases: cell-based
[1] = test system: Enterococcus sp.
Method in brief: (§1)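 Test strains, among them recent clinical isolates carrying methicillin, penicillin and/or vancomycin resistance, were inoculated at 5×10^5 CFU/mL. A broth dilution series spanning 64-0.06 μg/mL in Muller-Hinton II […] (NCCLS M7-A2) defined the MIC as the lowest growth-inhibiting concentration.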

[2] = test system: Escherichia coli
Method in brief: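 Values are minimum inhibitory concentrations, meaning the smallest antibiotic concentration that stops growth of the organism. They come from broth dilution in Muller-Hinton II […] per NCCLS guidance (M7-A2), using 5×10^5 CFU/mL and concentrations from 64 to 0.06 μg/mL.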

[3] = test system: Staphylococcus sp.; conditions: broth dilution, 18 hours at 35° C.
Method in brief: as §1

[4] = test system: Streptococcus sp.
Method in brief: as §1

[5] = broth dilution, inoculum 5×10^5 CFU/mL, 18 hours at 35° C.

MIC Enterococcus avium (GC 4558) [1, 5]: 16 µg/mL (≈ 10.9 µM) | MIC Enterococcus faecalis (ATCC 29212) [1, 5]: 16 µg/mL (≈ 10.9 µM) | MIC Enterococcus faecalis (GC 4552) [1, 5]: 16 µg/mL (≈ 10.9 µM) | MIC Enterococcus faecalis (GC 4553) [1, 5]: 16 µg/mL (≈ 10.9 µM) | MIC Enterococcus faecalis (GC 4554) [1, 5]: 16 µg/mL (≈ 10.9 µM) | MIC Enterococcus faecalis (GC 6189) [1, 5]: 16 µg/mL (≈ 10.9 µM) | MIC Enterococcus faecium (GC 2243) [1, 5]: 16 µg/mL (≈ 10.9 µM) | MIC Enterococcus faecium (GC 4556) [1, 5]: 16 µg/mL (≈ 10.9 µM) | MIC Enterococcus faecium (GC 4557) [1, 5]: 8 µg/mL (≈ 5.46 µM) | MIC Enterococcus faecalis (ATCC 29212) ([1]; strain ATCC 29212): 16 µg/mL (≈ 10.9 µM) | MIC Enterococcus faecalis (GC 2242) ([1]; strain GC 2242): 16 µg/mL (≈ 10.9 µM) | MIC Enterococcus faecium (GC 2243) ([1]; strain GC 2243): 16 µg/mL (≈ 10.9 µM) | MIC Enterococcus faecalis (GC 2691) ([1]; strain GC 2691): 16 µg/mL (≈ 10.9 µM) | MIC Enterococcus faecalis (GC 3059) ([1]; strain GC 3059): 16 µg/mL (≈ 10.9 µM) | MIC Enterococcus faecalis (GC 4552) ([1]; strain GC 4552): 16 µg/mL (≈ 10.9 µM) | MIC Enterococcus faecalis (GC 4553) ([1]; strain GC 4553): 16 µg/mL (≈ 10.9 µM) | MIC Enterococcus faecalis (GC 4554) ([1]; strain GC 4554): 16 µg/mL (≈ 10.9 µM) | MIC Enterococcus faecium (GC 4556) ([1]; strain GC 4556): 16 µg/mL (≈ 10.9 µM) | MIC Enterococcus faecium (GC 4557) ([1]; strain GC 4557): 8 µg/mL (≈ 5.46 µM) | MIC Enterococcus avium (GC 4558) ([1]; strain GC 4558): 16 µg/mL (≈ 10.9 µM) | MIC Enterococcus faecalis (GC 6189) ([1]; strain GC 6189): 16 µg/mL (≈ 10.9 µM) | MIC Escherichia coli (ATCC 25922) ([2]; strain ATCC 25922): >64 µg/mL | MIC Escherichia coli (GC 4559) ([2]; strain GC 4559): >64 µg/mL | MIC Escherichi coli (GC 4560) ([2]; strain GC 4560): 2 µg/mL (≈ 1.37 µM) | MIC Coagulase Negative Staphylococcus (GC 4547) ([3]; 5×10^5 CFU/mL): 4 µg/mL (≈ 2.73 µM) | MIC Coagulase Negative Staphylococcus (GC 4548) ([3]; 5×10^5 CFU/mL): 2 µg/mL (≈ 1.37 µM) | MIC Coagulase Negative Staphylococcus (GC 4549) ([3]; 5×10^5 CFU/mL): 2 µg/mL (≈ 1.37 µM) | MIC Coagulase Negative Staphylococcus (GC 4551) ([3]; 5×10^5 CFU/mL): 8 µg/mL (≈ 5.46 µM) | MIC Coagulase Negative Staphylococcus (GC 6257) ([3]; 5×10^5 CFU/mL): 2 µg/mL (≈ 1.37 µM) | MIC Staphylococcus aureus (ATCC 29213) ([3]; 5×10^5 CFU/mL): 4 µg/mL (≈ 2.73 µM) | MIC Staphylococcus aureus (GC 1131) ([3]; 5×10^5 CFU/mL): 8 µg/mL (≈ 5.46 µM) | MIC Staphylococcus aureus (GC 3051) ([3]; 5×10^5 CFU/mL): 8 µg/mL (≈ 5.46 µM) | MIC Staphylococcus aureus (GC 3053) ([3]; 5×10^5 CFU/mL): 8 µg/mL (≈ 5.46 µM) | MIC Staphylococcus aureus (GC 4541) ([3]; 5×10^5 CFU/mL): 4 µg/mL (≈ 2.73 µM) | MIC Staphylococcus aureus (GC 4542) ([3]; 5×10^5 CFU/mL): 4 µg/mL (≈ 2.73 µM) | MIC Staphylococcus aureus (GC 4544) ([3]; 5×10^5 CFU/mL): 8 µg/mL (≈ 5.46 µM) | MIC Staphylococcus aureus (GC 4545) ([3]; 5×10^5 CFU/mL): 4 µg/mL (≈ 2.73 µM) | MIC Staphylococcus aureus-SMITH (GC 4543) ([3]; 5×10^5 CFU/mL): 4 µg/mL (≈ 2.73 µM) | MIC Staphylococcus aureus (ATCC 29213) ([3]; strain ATCC 29213): 4 µg/mL (≈ 2.73 µM) | MIC Staphylococcus aureus (GC 1131) ([3]; strain GC 1131): 8 µg/mL (≈ 5.46 µM) | MIC Staphylococcus aureus (GC 3051) ([3]; strain GC 3051): 8 µg/mL (≈ 5.46 µM) | MIC Staphylococcus aureus (GC 3053) ([3]; strain GC 3053): 8 µg/mL (≈ 5.46 µM) | MIC Staphylococcus aureus (GC 4541) ([3]; strain GC 4541): 4 µg/mL (≈ 2.73 µM) | MIC Staphylococcus aureus (GC 4542) ([3]; strain GC 4542): 4 µg/mL (≈ 2.73 µM) | MIC Staphylococcus aureus-SMITH (GC 4543) ([3]; strain GC 4543): 4 µg/mL (≈ 2.73 µM) | MIC Staphylococcus aureus (GC 4544) ([3]; strain GC 4544): 8 µg/mL (≈ 5.46 µM) | MIC Staphylococcus aureus (GC 4545) ([3]; strain GC 4545): 4 µg/mL (≈ 2.73 µM) | MIC Coagulase Negative Staphylococcus (GC 4547) ([3]; strain GC 4547): 4 µg/mL (≈ 2.73 µM) | MIC Coagulase Negative Staphylococcus (GC 4548) ([3]; strain GC 4548): 2 µg/mL (≈ 1.37 µM) | MIC Coagulase Negative Staphylococcus (GC 4549) ([3]; strain GC 4549): 2 µg/mL (≈ 1.37 µM) | MIC Coagulase Negative Staphylococcus (GC 4551) ([3]; strain GC 4551): 8 µg/mL (≈ 5.46 µM) | MIC Coagulase Negative Staphylococcus (GC 6257) ([3]; strain GC 6257): 2 µg/mL (≈ 1.37 µM) | MIC Streptococcus pneumoniae (ATCC 6301) ([4]; strain ATCC 6301): 0.5 µg/mL (≈ 0.341 µM) | MIC Streptococcus pneumoniae (GC 1894) ([4]; strain GC 1894): 0.12 µg/mL (≈ 0.0819 µM) | MIC Streptococcus pyogenes (GC 4563) ([4]; strain GC 4563): 1 µg/mL (≈ 0.683 µM) | MIC Streptococcus agalactiae (GC 4564) ([4]; strain GC 4564): 1 µg/mL (≈ 0.683 µM) | MIC Streptococcus pneumoniae (GC 4565) ([4]; strain GC 4565): 0.5 µg/mL (≈ 0.341 µM)
SMILES: CC(=O)n1cc(C2OCC3OC(OC4C(CO)OC(Oc5ccc(CC6NC(=O)C(C(C)c7ccccc7)NC(=O)CNC(=O)C(CO)NC(=O)C(C(O)C7CNC(=N)N7C7OC(CO)C(O)C(O)C7O)NC(=O)C(C(O)C7CNC(=N)N7)NC6=O)cc5)C(O)C4O)C(O)C(O)C3O2)c2ccccc21 (stereo not drawn) [Example 161, Cyclo[glycyl-β-methylphenylalanyl-O-[4-O-[4,6-O-[1-(acetylindol-3-yl)methylene]hexopyranosyl]hexopyranosyl]tyrosyl-3-(2-iminoimidazolidin-4-yl)seryl-3-(3-hexopyranosyl-2-iminoimidazolidin-4-yl)serylseryl]]
MIC Staphylococcus haemolyticus (GC 4546) ([3]; 5×10^5 CFU/mL): 4 µg/mL (≈ 2.73 µM) | MIC Staphylococcus haemolyticus (GC 4546) ([3]; strain GC 4546): 4 µg/mL (≈ 2.73 µM)
